Test results reported in PubChem BioAssay (NCI).
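Five compound concentrations were applied to cells in 96-well plates for 48 hours; endpoints were derived by simple linear interpolation of the resulting dose-response curve. TGI marks complete inhibition of growth.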

Tests used:
Assay in all cases: NCI tumour cell line growth inhibition, 48 h
[1] = system: DMS 114 small cell lung
[2] = system: DMS 273 small cell lung
[3] = system: KM20L2 colon
[4] = system: LXFL 529 NSCLC
[5] = system: M19-MEL melanoma
[6] = system: XF 498 CNS
[7] = system: DLD-1 colon
[8] = system: RXF-631 renal
[9] = system: SN12K1 renal
[10] = system: P388 leukemia
[11] = system: P388/ADR leukemia

SMILES | TGI [1] | TGI [2] | TGI [3] | TGI [4] | TGI [5] | TGI [6] | TGI [7] | TGI [8] | TGI [9] | TGI [10] | TGI [11]
COC(=O)C(Cc1ccc(N(C)C)cc1)(NC(=O)c1ccccc1)P(=O)(OC)OC (configuration not stated) | > 100 µM | > 100 µM | > 100 µM | > 100 µM | > 100 µM | > 100 µM | – | – | – | – | –
O=P(Nc1ccccc1)(Oc1ccccc1)N(CCCl)CCCl (configuration not stated) | > 100 µM | > 100 µM | > 100 µM | – | > 100 µM | – | > 100 µM | > 100 µM | – | – | –
O=C(Nc1ccccc1Cl)c1ccc([N+](=O)[O-])cc1 | – | > 100 µM | > 100 µM | – | > 100 µM | > 100 µM | > 100 µM | – | – | – | –
COC1=C(C)C(=O)C2=C(C1=O)C1C3CC4=C(C(=O)C(OC)=C(C)C4=O)C(CNC(=O)C(C)O)N3C(C#N)C(C2)N1C (configuration not stated) | < 0.01 µM | < 0.0111 µM | 3.1 µM | – | < 0.01 µM | – | 0.372 µM | – | < 0.01 µM | – | –
CCn1c2c(c3ccccc31)[C@@H](c1ccc(Cl)cc1)CC1C(=O)N(c3ccccc3)C(=O)C21 (some centres not stated) | > 100 µM | > 100 µM | > 100 µM | > 100 µM | > 100 µM | > 100 µM | > 100 µM | – | – | – | –
C=CC(C)C1(CCCOCc2ccccc2)C(=S)N2CCC3(CC24CCCC14)OCCO3 (configuration not stated) | > 100 µM | > 100 µM | > 100 µM | > 100 µM | > 100 µM | 52.7 µM | > 100 µM | – | – | – | –
OC12c3ccccc3C1CCCCCCCCCC21OCCO1 (configuration not stated) | > 100 µM | > 100 µM | > 100 µM | > 100 µM | > 100 µM | – | – | – | – | – | –
C=CCN1/C(=C2\SC(=S)N(c3ccc(C)cc3)C2=O)Sc2c1ncn(C)c2=O | > 100 µM | > 100 µM | > 100 µM | > 100 µM | > 100 µM | > 100 µM | > 100 µM | – | – | – | –
CCOC(=O)C(Cc1ccccc1)NC(=O)c1[nH]cnc1/N=N/N(C)C (configuration not stated) | > 100 µM | > 100 µM | – | > 100 µM | > 100 µM | – | > 100 µM | – | – | – | –
COC(=O)[C@]1(c2ccc(N(C)C)cc2OC)C[C@@H]2CCCN(CCc3c1[nH]c1ccccc31)C2 | 30.9 µM | 45.1 µM | 32.5 µM | – | 32.8 µM | 34.1 µM | > 64.1 µM | – | 34.6 µM | 36 µM | 47.1 µM
CNC(=O)SCC(NC(=O)CCC(N)C(=O)O)C(=O)NCC(=O)O (configuration not stated) | > 100 µM | > 100 µM | > 100 µM | – | > 100 µM | > 100 µM | > 100 µM | – | > 100 µM | > 100 µM | > 100 µM
